Measured values reported in patent US10227357B2, “Compounds and methods for kinase modulation, and indications therefor” (Plexxikon Inc., priority 2012, dated 2019).

Columns and labels:
[1] = biological target: T1, c-kit mutant D816V (Homo sapiens, UniProt P10721, D816V/DEL694-753); test: c-Kit mutant D816V biochemical assay, AlphaScreen; conditions: c-kit D816V biochemical inhibitory activity; read-out: Biochemical activity (IC50 μM) Kit D816V
T1 construct: residues 551-934, kinase insertion domain residues 694-753 deleted; 6x-histidine (N); made in house; host or cells: E. coli Arctic Express (DE3) RIL (Stratagene)
T1 sequence (P10721 with tags, fused parts or gaps DEL694-753/D816V): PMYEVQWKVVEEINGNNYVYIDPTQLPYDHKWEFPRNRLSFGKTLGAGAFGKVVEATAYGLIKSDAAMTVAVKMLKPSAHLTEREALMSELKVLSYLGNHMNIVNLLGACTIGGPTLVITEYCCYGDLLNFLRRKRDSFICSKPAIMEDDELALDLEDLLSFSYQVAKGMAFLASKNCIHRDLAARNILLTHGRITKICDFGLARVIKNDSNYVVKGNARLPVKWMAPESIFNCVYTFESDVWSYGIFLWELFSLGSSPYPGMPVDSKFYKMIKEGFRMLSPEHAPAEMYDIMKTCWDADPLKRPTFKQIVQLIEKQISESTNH
In short: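 Purified His-tagged c-Kit D816V (E. coli-expressed) assayed in 25 mM HEPES pH 7.2 with Mg/Mn, 5% DMSO and 10 μM ATP, 30 min at room temperature, 8-point 1:3 dilutions. Phosphorylation detected by AlphaScreen with streptavidin donor and PY20 acceptor beads; IC50 from signal versus concentration.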

[2] = biological target: T2, c-kit kinase (Homo sapiens, UniProt P10721); test: c-Kit biochemical assay, AlphaScreen, 10 μM ATP; conditions: c-kit biochemical inhibitory activity; read-out: Biochemical activity (IC50 μM) Kit
T2 construct: The c-kit (or kinase domain thereof) is an active kinase in AlphaScreen; poly-Histidine tag (in-house protein only) (cleaved yes); host or cells: E. coli BL21(DE3)RIL, co-expressed with PTP1B
T2 sequence (P10721 26-976): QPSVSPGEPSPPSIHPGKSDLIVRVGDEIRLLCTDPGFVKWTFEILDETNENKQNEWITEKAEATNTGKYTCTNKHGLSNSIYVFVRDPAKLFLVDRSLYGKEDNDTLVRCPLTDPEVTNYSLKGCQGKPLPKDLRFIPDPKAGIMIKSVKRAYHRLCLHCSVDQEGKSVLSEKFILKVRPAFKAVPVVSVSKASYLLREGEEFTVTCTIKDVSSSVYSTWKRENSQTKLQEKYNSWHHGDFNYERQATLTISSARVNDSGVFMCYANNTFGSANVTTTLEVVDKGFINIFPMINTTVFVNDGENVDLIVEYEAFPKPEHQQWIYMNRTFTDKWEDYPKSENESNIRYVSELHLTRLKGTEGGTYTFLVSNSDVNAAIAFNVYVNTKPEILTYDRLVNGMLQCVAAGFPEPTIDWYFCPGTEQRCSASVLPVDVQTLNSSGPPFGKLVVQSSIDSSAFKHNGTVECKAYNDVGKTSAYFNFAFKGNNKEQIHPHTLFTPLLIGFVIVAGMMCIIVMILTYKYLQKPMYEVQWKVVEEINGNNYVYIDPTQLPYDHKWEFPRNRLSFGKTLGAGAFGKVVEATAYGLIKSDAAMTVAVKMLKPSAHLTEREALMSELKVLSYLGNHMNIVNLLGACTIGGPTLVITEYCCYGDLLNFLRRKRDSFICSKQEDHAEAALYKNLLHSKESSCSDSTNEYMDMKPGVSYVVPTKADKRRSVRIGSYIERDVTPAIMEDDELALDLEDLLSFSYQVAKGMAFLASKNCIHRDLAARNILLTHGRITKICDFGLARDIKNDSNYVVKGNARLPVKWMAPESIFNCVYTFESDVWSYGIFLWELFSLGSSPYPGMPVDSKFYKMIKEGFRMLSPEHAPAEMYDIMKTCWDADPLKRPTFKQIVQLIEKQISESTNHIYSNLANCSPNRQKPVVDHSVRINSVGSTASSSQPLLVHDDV
In short: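 His-tagged c-Kit expressed in E. coli with co-expressed PTP1B (dephosphorylated), tag removed; 0.1 ng per reaction with biotinylated-peptide substrate in 50 mM HEPES pH 7.2, 5 mM MgCl2, 5 mM MnCl2, 5% DMSO, 10 μM ATP, 1 h at room temperature. Phosphorylation detected by AlphaScreen (streptavidin donor, PY20 acceptor beads); IC50 from 8-point 1:3 dilution series.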

Structure (SMILES) | IC50 [1] [µM] | IC50 [2] [µM]
COc1cc(-c2cc3c(N4CCN(C(=O)N[C@@H](C)c5ccc(F)cc5)[C@H](C)C4)ncnc3[nH]2)ccn1 [P-0695, (2R)-N-[(1S)-1-(4-fluorophenyl)ethyl]-4-[6-(2-methoxy-4-pyridyl)-7H-pyrrolo[2,3-d]pyrimidin-4-yl]-2-methyl-piperazine-1-carboxamide] | 0.0001 to 1 | 10 to 200
C[C@H](NC(=O)N1CCN(c2ncnc3[nH]c(-c4ccc(C#N)cc4)cc23)CC1)c1cccc(Cl)c1 [P-0697, N-[(1S)-1-(3-chlorophenyl)ethyl]-4-[6-(4-cyanophenyl)-7H-pyrrolo[2,3-d]pyrimidin-4-yl]piperazine-1-carboxamide] | 0.0001 to 1 | 1 to 10
C[C@H](NC(=O)N1CCN(c2ncnc3[nH]c(-c4ccc(F)cc4)cc23)CC1(C)C)c1ccc(Cl)cc1 [P-0700, N-[(1S)-1-(4-chlorophenyl)ethyl]-4-[6-(4-fluorophenyl)-7H-pyrrolo[2,3-d]pyrimidin-4-yl]-2,2-dimethyl-piperazine-1-carboxamide] | 0.0001 to 1 | 1 to 10
O=C(NCc1cccs1)N1CCN(c2ncnc3cc(-c4ccc(F)cc4)sc23)CC1 [P-0709, 4-[6-(4-fluorophenyl)thieno[3,2-d]pyrimidin-4-yl]-N-(2-thienylmethyl)piperazine-1-carboxamide] | 0.0001 to 1 | 10 to 200
COc1cc(-c2cc3c(N4CCN(C(=O)N[C@@H](C)c5ccc(Cl)cc5)C(C)(C)C4)ncnc3[nH]2)ccn1 [P-0710, N-[(1S)-1-(4-chlorophenyl)ethyl]-4-[6-(2-methoxy-4-pyridyl)-7H-pyrrolo[2,3-d]pyrimidin-4-yl]-2,2-dimethyl-piperazine-1-carboxamide] | 0.0001 to 1 | 10 to 200
Cc1ccc([C@H](C)NC(=O)N2CCN(c3ncnc4[nH]c(-c5ccc(F)cc5)cc34)C[C@H]2C)cc1 [P-0712, (2R)-4-[6-(4-fluorophenyl)-7H-pyrrolo[2,3-d]pyrimidin-4-yl]-2-methyl-N-[(1S)-1-(p-tolyl)ethyl]piperazine-1-carboxamide] | 0.0001 to 1 | 10 to 200
CCOc1cccc(-c2[nH]c(C3CCN(c4ncnc5[nH]c(-c6ccnc(OC)c6)cc45)CC3)nc2C)c1 [P-0714, 4-[4-[5-(3-ethoxyphenyl)-4-methyl-1H-imidazol-2-yl]-1-piperidyl]-6-(2-methoxy-4-pyridyl)-7H-pyrrolo[2,3-d]pyrimidine] | 0.0001 to 1 | 10 to 200
Cc1nn(C)cc1-c1cc2c(N3CCN(C(=O)N[C@@H](C)c4ccc(F)cc4)[C@H](C)C3)ncnc2[nH]1 [P-0715, (2R)-4-[6-(1,3-dimethylpyrazol-4-yl)-7H-pyrrolo[2,3-d]pyrimidin-4-yl]-N-[(1S)-1-(4-fluorophenyl)ethyl]-2-methyl-piperazine-1-carboxamide] | 0.0001 to 1 | 1 to 10
Cc1nn(C)cc1-c1cc2c(N3CCN(C(=O)N[C@@H](C)c4ccc(Cl)cc4)CC3)ncnc2[nH]1 [P-0716, N-[(1S)-1-(4-chlorophenyl)ethyl]-4-[6-(1,3-dimethylpyrazol-4-yl)-7H-pyrrolo[2,3-d]pyrimidin-4-yl]piperazine-1-carboxamide] | 0.0001 to 1 | 10 to 200
C[C@H](NC(=O)N1CCN(c2ncnc3[nH]c(-c4cnn(C)c4)cc23)C[C@H]1C)c1ccc(Cl)cc1 [P-0717, (2R)-N-[(1S)-1-(4-chlorophenyl)ethyl]-2-methyl-4-[6-(1-methylpyrazol-4-yl)-7H-pyrrolo[2,3-d]pyrimidin-4-yl]piperazine-1-carboxamide] | 0.0001 to 1 | 1 to 10
Cc1nn(C)cc1-c1cc2c(N3CCN(C(=O)N[C@@H](C)c4ccc(Cl)cc4)[C@H](C)C3)ncnc2[nH]1 [P-0718, (2R)-N-[(1S)-1-(4-chlorophenyl)ethyl]-4-[6-(1,3-dimethylpyrazol-4-yl)-7H-pyrrolo[2,3-d]pyrimidin-4-yl]-2-methyl-piperazine-1-carboxamide] | 0.0001 to 1 | 0.0001 to 1
Cc1ccc([C@H](C)NC(=O)N2CCN(c3ncnc4[nH]c(-c5ccc(F)cc5)cc34)CC2(C)C)cc1 [P-0719, 4-[6-(4-fluorophenyl)-7H-pyrrolo[2,3-d]pyrimidin-4-yl]-2,2-dimethyl-N-[(1S)-1-(p-tolyl)ethyl]piperazine-1-carboxamide] | 0.0001 to 1 | 0.0001 to 1
C[C@H](NC(=O)N1CCN(c2ncnc3[nH]c(-c4cnn(C)c4)cc23)CC1(C)C)c1ccc(F)cc1 [P-0720, N-[(1S)-1-(4-fluorophenyl)ethyl]-2,2-dimethyl-4-[6-(1-methylpyrazol-4-yl)-7H-pyrrolo[2,3-d]pyrimidin-4-yl]piperazine-1-carboxamide] | 0.0001 to 1 | 0.0001 to 1
Cc1nn(C)cc1-c1cc2c(N3CCN(C(=O)N[C@@H](C)c4ccc(F)cc4)C(C)(C)C3)ncnc2[nH]1 [P-0721, 4-[6-(1,3-dimethylpyrazol-4-yl)-7H-pyrrolo[2,3-d]pyrimidin-4-yl]-N-[(1S)-1-(4-fluorophenyl)ethyl]-2,2-dimethyl-piperazine-1-carboxamide] | 0.0001 to 1 | 0.0001 to 1
C[C@H](NC(=O)N1CCN(c2ncnc3[nH]c(-c4cnn(C)c4)cc23)CC1(C)C)c1ccc(Cl)cc1 [P-0722, N-[(1S)-1-(4-chlorophenyl)ethyl]-2,2-dimethyl-4-[6-(1-methylpyrazol-4-yl)-7H-pyrrolo[2,3-d]pyrimidin-4-yl]piperazine-1-carboxamide] | 0.0001 to 1 | 0.0001 to 1
Cc1nn(C)cc1-c1cc2c(N3CCN(C(=O)N[C@@H](C)c4ccc(Cl)cc4)C(C)(C)C3)ncnc2[nH]1 [P-0723, N-[(1S)-1-(4-chlorophenyl)ethyl]-4-[6-(1,3-dimethylpyrazol-4-yl)-7H-pyrrolo[2,3-d]pyrimidin-4-yl]-2,2-dimethyl-piperazine-1-carboxamide] | 0.0001 to 1 | 0.0001 to 1
Cc1nn(C)cc1-c1cc2c(N3CCN(C(=O)N[C@@H](C)c4ccc(F)cc4)CC3)ncnc2[nH]1 [P-0724, 4-[6-(1,3-dimethylpyrazol-4-yl)-7H-pyrrolo[2,3-d]pyrimidin-4-yl]-N-[(1S)-1-(4-fluorophenyl)ethyl]piperazine-1-carboxamide] | 0.0001 to 1 | 0.0001 to 1
C[C@H](NC(=O)N1CCN(c2ncnc3[nH]c(-c4cnn(C)c4)cc23)C[C@H]1C)c1ccc(F)cc1 [P-0725, (2R)-N-[(1S)-1-(4-fluorophenyl)ethyl]-2-methyl-4-[6-(1-methylpyrazol-4-yl)-7H-pyrrolo[2,3-d]pyrimidin-4-yl]piperazine-1-carboxamide] | 0.0001 to 1 | 0.0001 to 1
CCc1ccc(S(=O)(=O)NC2CCN(c3ncnc4[nH]c(-c5cn(C)nc5C)cc34)CC2)cc1 [P-0726, N-[1-[6-(1,3-dimethylpyrazol-4-yl)-7H-pyrrolo[2,3-d]pyrimidin-4-yl]-4-piperidyl]-4-ethyl-benzenesulfonamide] | 0.0001 to 1 | 0.0001 to 1
CCc1ccc(S(=O)(=O)NC2CCN(c3ncnc4[nH]c(-c5ccnc(OC)c5)cc34)CC2)cc1 [P-0727, 4-ethyl-N-[1-[6-(2-methoxy-4-pyridyl)-7H-pyrrolo[2,3-d]pyrimidin-4-yl]-4-piperidyl]benzenesulfonamide] | 0.0001 to 1 | 0.0001 to 1
Cc1cc2c(N3CCC(NS(=O)(=O)c4ccc(Cl)cc4)CC3)ncnc2[nH]1 [P-0728, 4-chloro-N-[1-(6-methyl-7H-pyrrolo[2,3-d]pyrimidin-4-yl)-4-piperidyl]benzenesulfonamide] | 0.0001 to 1 | 0.0001 to 1
